Measured values taken from ChEMBL document CHEMBL4840355, “Antitumor and toxicity study of mitochondria-targeted triptolide derivatives using triphenylphosphine (TPP+) as a carrier” (Bioorg Med Chem, 2021).
The source made the active and inactive calls. No cut-off for these calls is given here.

Key:
HepG2 [1] = experiment: Cytotoxicity against human HepG2 cells assessed as inhibition of cell proliferation measured after 48 hrs by MTT assay; assay type: functional, cell-based; conditions: HepG2, 48 h
PC-3 = experiment: Cytotoxicity against human PC-3 cells assessed as inhibition of cell proliferation measured after 48 hrs by MTT assay; assay type: functional, cell-based; conditions: PC-3, 48 h
HeLa = experiment: Cytotoxicity against human HeLa cells assessed as inhibition of cell proliferation measured after 48 hrs by MTT assay; assay type: functional, cell-based
MCF7 = experiment: Cytotoxicity against human MCF7 cells assessed as inhibition of cell proliferation measured after 48 hrs by MTT assay; assay type: functional, cell-based; conditions: MCF7, 48 h
PANC-1 = experiment: Cytotoxicity against human PANC-1 cells assessed as inhibition of cell proliferation measured after 48 hrs by MTT assay; assay type: functional, cell-based; conditions: PANC-1, 48 h
[2] = Cytotoxicity against human HBE cells assessed as inhibition of cell proliferation measured after 48 hrs by MTT assay; assay type: cell-based
NCI-H1299 = experiment: Cytotoxicity against human NCI-H1299 cells assessed as inhibition of cell proliferation measured after 48 hrs by MTT assay; assay type: functional, cell-based; conditions: NCI-H1299, 48 h
[3] = Cytotoxicity against human A549/DDP cells assessed as inhibition of cell proliferation measured after 48 hrs by MTT assay; assay type: functional, cell-based
HepG2 [4] = experiment: Cytotoxicity against human HepG2 cells assessed as increase in release of LDH measured after 48 hrs by LDH assay; assay type: functional, cell-based; conditions: dose 100-200 nM
HepG2 [5] = experiment: Induction of apoptosis in human HepG2 cells assessed as induction of morphological changes by measuring nuclear shrinkage and cleavage at 25 to 100 nM measured after 48 hrs by DAPI staining based inverted fluorescence microscope analysis; assay type: functional, cell-based; conditions: dose 25-100 nM
HepG2 [6] = experiment: Induction of apoptosis in human HepG2 cells assessed as live cells at 50 nM measured after 48 hrs by Annexin V-FITC/PI double staining based flow cytometry analysis (Rvb= 94.8%); assay type: functional
HepG2 [7] = experiment: Induction of apoptosis in human HepG2 cells assessed as early apoptotic cells at 50 nM measured after 48 hrs by Annexin V-FITC/PI double staining based flow cytometry analysis (Rvb= 2.16%); assay type: functional
HepG2 [8] = experiment: Induction of apoptosis in human HepG2 cells assessed as necrotic cells at 50 nM measured after 48 hrs by Annexin V-FITC/PI double staining based flow cytometry analysis (Rvb= 0.13%); assay type: functional
HepG2 [9] = experiment: Induction of apoptosis in human HepG2 cells assessed as late apoptotic cells at 75 nM measured after 48 hrs by Annexin V-FITC/PI double staining based flow cytometry analysis (Rvb= 2.89%); assay type: functional
HepG2 [10] = experiment: Induction of apoptosis in human HepG2 cells assessed as live cells at 100 nM measured after 48 hrs by Annexin V-FITC/PI double staining based flow cytometry analysis (Rvb= 94.8%); assay type: functional
HepG2 [11] = experiment: Induction of apoptosis in human HepG2 cells assessed as early apoptotic cells at 100 nM measured after 48 hrs by Annexin V-FITC/PI double staining based flow cytometry analysis (Rvb= 2.16%); assay type: functional
HepG2 [12] = experiment: Induction of apoptosis in human HepG2 cells assessed as late apoptotic cells at 100 nM measured after 48 hrs by Annexin V-FITC/PI double staining based flow cytometry analysis (Rvb= 2.89%); assay type: functional
HepG2 [13] = experiment: Induction of apoptosis in human HepG2 cells assessed as early apoptotic cells at 150 nM measured after 48 hrs by Annexin V-FITC/PI double staining based flow cytometry analysis (Rvb= 2.16%); assay type: functional
HepG2 [14] = experiment: Induction of mitochondrial membrane potential loss in human HepG2 cells assessed as proportion of cells with hyperpolarized mitochondria at 50 nM measured after 48 hrs by JC-1 staining based flow cytometry analysis (Rvb= 80.9%); assay type: functional
HepG2 [15] = experiment: Induction of mitochondrial membrane potential loss in human HepG2 cells assessed as proportion of cells with depolarized mitochondria at 50 nM measured after 48 hrs by JC-1 staining based flow cytometry analysis (Rvb= 9.1%); assay type: functional
HepG2 [16] = experiment: Induction of mitochondrial membrane potential loss in human HepG2 cells assessed as proportion of cells with hyperpolarized mitochondria at 75 nM measured after 48 hrs by JC-1 staining based flow cytometry analysis (Rvb= 80.9%); assay type: functional
HepG2 [17] = experiment: Induction of mitochondrial membrane potential loss in human HepG2 cells assessed as proportion of cells with hyperpolarized mitochondria at 100 nM measured after 48 hrs by JC-1 staining based flow cytometry analysis (Rvb= 80.9%); assay type: functional
HepG2 [18] = experiment: Induction of mitochondrial membrane potential loss in human HepG2 cells assessed as proportion of cells with depolarized mitochondria at 100 nM measured after 48 hrs by JC-1 staining based flow cytometry analysis (Rvb= 9.1%); assay type: functional
HepG2 [19] = experiment: Induction of mitochondrial membrane potential loss in human HepG2 cells assessed as proportion of cells with hyperpolarized mitochondria at 150 nM measured after 48 hrs by JC-1 staining based flow cytometry analysis (Rvb= 80.9%); assay type: functional
HepG2 [20] = experiment: Induction of mitochondrial membrane potential loss in human HepG2 cells assessed as proportion of cells with depolarized mitochondria at 200 nM measured after 48 hrs by JC-1 staining based flow cytometry analysis (Rvb= 9.1%); assay type: functional
HepG2 [21] = experiment: Induction of ROS generation in human HepG2 cells assessed as increase in ROS level at 50 to 150 nM measured after 48 hrs by DCFH-DA staining based flow cytometry analysis; assay type: functional, cell-based; conditions: dose 50-150 nM
HepG2 [22] = experiment: Induction of cell cycle arrest in human HepG2 cells assessed as accumulation of cells in G0/G1 phase at 50 nM measured after 48 hrs by RNase A/PI staining based flow cytometry analysis (Rvb= 56.42+/- 0.27%); assay type: functional
[23] = Toxicity in zebrafish AB assessed as mortality at 0.05 to 2 uM measured at 72 hrs postfertilization; set-up: species or system Danio rerio; conditions: in vivo, dose 0.05-2 µM
[24] = Toxicity in zebrafish AB assessed as body length at 0.05 to 2 uM measured at 72 hrs postfertilization; set-up: species or system Danio rerio; conditions: in vivo, dose 0.05-2 µM
[25] = Toxicity in zebrafish AB assessed as pericardial edema at 12 uM measured at 72 hrs postfertilization; set-up: species or system Danio rerio; conditions: in vivo
[26] = Toxicity in zebrafish AB assessed as hatching rate at <12 uM measured at 72 hrs postfertilization; set-up: species or system Danio rerio; conditions: in vivo
[27] = Toxicity in zebrafish AB assessed as malformation rate at <12 uM measured at 72 hrs postfertilization; set-up: species or system Danio rerio; conditions: in vivo
[28] = Hepatotoxicity in transgenic zebrafish Tg(1-fabp:EGFP) assessed as liver damage by measuring decrease in fluorescence intensity and area at 0.05 to 0.5 uM measured after 96 hrs; assay type: toxicity, tissue-based, Danio rerio; conditions: in vivo, dose 0.05-0.5 µM
HepG2 [29] = experiment: Antitumor activity against human HepG2 cells xenografted in zebra fish AB assessed as tumor growth inhibition at 1 uM measured after 48 hrs by fluorescence microscopic analysis; assay type: functional, cell-based
[30] = Toxicity in zebrafish AB assessed as increase in embryo malformation rate at 0.05 to 2 uM measured at 72 hrs postfertilization; set-up: species or system Danio rerio; conditions: in vivo, dose 0.05-2 µM
[31] = Toxicity in zebrafish AB assessed as increase in hatching rate at 0.05 to 2 uM measured at 72 hrs postfertilization; set-up: species or system Danio rerio; conditions: in vivo, dose 0.05-2 µM

## CC(C)[C@]12O[C@H]1[C@@H]1O[C@]13[C@]1(O[C@H]1C[C@H]1C4=C(CC[C@@]13C)C(=O)OC4)[C@@H]2OC(=O)CCCCC[P+](c1ccccc1)(c1ccccc1)c1ccccc1.[Br-]
HepG2 [1]
  IC50: 0.067 µM
PC-3
  IC50: 0.186 µM
HeLa
  IC50: 0.325 µM
MCF7
  IC50: 0.238 µM
PANC-1
  IC50: 0.349 µM
[2]
  IC50: 0.21 µM
NCI-H1299
  IC50: 0.254 µM
[3]
  IC50: > 10 µM
HepG2 [4]
  Activity: Dose-Dependent Effect
HepG2 [5]
  Activity: Active
HepG2 [6]
  Activity: 91.2%
HepG2 [7]
  Activity: 3.89%
HepG2 [8]
  Activity: 0.63%
HepG2 [9]
  Activity: 7.47%
HepG2 [10]
  Activity: 59.9%
HepG2 [11]
  Activity: 27.8%
HepG2 [12]
  Activity: 12.1%
HepG2 [13]
  Activity: 33.7%
HepG2 [14]
  Activity: 74.7%
HepG2 [15]
  Activity: 25.3%
HepG2 [16]
  Activity: 64.4%
HepG2 [17]
  Activity: 54.4%
HepG2 [18]
  Activity: 45.6%
HepG2 [19]
  Activity: 51.1%
HepG2 [20]
  Activity: 55.7%
HepG2 [21]
  Activity: Active
HepG2 [22]
  Activity: 72.22%
[23]
  Activity: Non-Toxic
[24]
  Activity: Non-Toxic
[25]
  Activity: Toxic
[26]
  Activity: Non-Toxic
[27]
  Activity: Non-Toxic
[28]
  Activity: Non-Toxic
HepG2 [29]
  Activity: Active
[30]
  Activity: Non-Toxic
[31]
  Activity: Non-Toxic
